Test results reported in patent publication US20150202219A1, “NEUROPROTECTION FROM BRAIN ANOXIA AND REPERFUSION INJURY DURING STROKE AND COMPOSITIONS OF PKG PATHWAY ACTIVATORS AND METHOD OF USE THEREOF” (Florida Atlantic University, priority 2010, published 2015).

Columns and labels:
[1] = tested on: adult Drosophila melanogaster; assay: Time to anoxic coma onset (locomotion failure) during acute hypoxia after volatilized drug treatment; type: in vivo; settings: adult sitter flies; single agent volatilized from 10 uL DMSO for 1 hr; 1 mM KT5823, 1 mM Cantharidin, 200 mM DCA, 10 mM 8-Bromo cGMP, 10 mM T-0156; argon displacement; Dunn's p<0.05
Protocol: Using both genetics and pharmacology, the roles and order of function of additional cGMP-dependent signaling molecules in modulating acute low-oxygen sensitivity of locomotory failure were examined. To do this, we imposed acute hypoxia (<0.2% O2 within 5 min) by displacing environmental oxygen with the inert gas argon and then measured time to failure of locomotion (anoxic coma), which can be observed in less than 2% atmospheric oxygen (Haddad, 2000). We also used a novel but reliable method of pharmacological volatilization as a means to manipulate, in vivo, the activity of target enzymes and molecules such as PKG. Flies were frozen immediately after each trial, and heads were dissected and examined for PKG activity, as an indicator for activity levels in the brain (Belay et al., 2007; Kaun et al., 2007b). Lastly, using adult flies we tested what has been previously shown in embryos and larva (Wingrove and O'Farrell, 1999), the effect of prolonged anoxia (6 hours) on animal survival, after a 24 hour recovery.
Ten flies (separated into males or females) from each of the three strains (rover [for^R], sitter [for^s] and for^s2) were selected and placed in three separate vials with food at least 24 hours before each experiment. At the time of the experiment, flies were emptied into 10 mL empty test vials covered with permeable sponge caps of equivalent thickness, allowing for consistent gas exchange. These test vials were then placed into a 600 mL beaker which was covered with parafilm, creating a closed chamber with an escape hole in the parafilm (1 cm diameter). The purpose of this hole is to allow the lighter normal air (compared to argon which is heavier) to escape from the top of the beaker. The parafilm top was punctured with a needle connected to a gas tank (by a plastic hose), through which the inert gas argon was expelled. Preliminary work was done with pure nitrogen, where no significant differences between the uses of the two gases were observed (data not shown).
The needle tip was fastened to the bottom of the beaker and inserted into a larger sponge of similar texture to the vial sponge caps to ensure that gas expelled from the needle was dispersed equally throughout the beaker. […]
The experiment required exposing the test vials with 10 flies in a vial within the container to pure argon gas expelled from the tank at a flow rate of 600 cc/min±5%. Time of behavioral failure was recorded by observing the fly undergo a seizure, which was quickly followed by an anoxic coma. […] The program recorded these times of failure for each individual fly within the vials and then computed an average failure time for each vial (each vial has 10 flies but gives an average value for N=1). […]

PKG = PKG enzyme activity assay on heads of treated flies; type: biochemical, Drosophila melanogaster; settings: heads of animals from FIG. 4a experiments; N=6 for each treatment; SNK
Protocol: PKG enzyme activity assays were conducted according to the procedure outlined in Kaun et al. (2007)(Kaun et al., 2007b). Adult Drosophila were decapitated and the heads were homogenized in 25 mM 1-1 Tris (pH 7.4), 1 mM 1-1 EDTA, 2 mM 1-1 EGTA, 5 mM 1-1 β-mercaptoethanol, 0.05% Triton X-100 and protease inhibitor solution (Roche Diagnostics). Following microcentrifugation for 5 min, the supernatant was removed and those supernatants containing equal amounts of total protein were examined for PKG enzyme activity. The reaction mixture contained the following substances: 40 mM 1-1 Tris-HCl (pH 7.4), 20 mM 1-1 magnesium acetate, 0.2 mM 1-1 [γ^32P]ATP (500-1000 c.p.m. pmol-1), 113 mg ml-1 heptapeptide (RKRSRAE), 3 mM 1-1 cGMP and a highly specific inhibitor of cAMP-dependent protein kinase. The next step of the procedure involved incubating the reaction mixtures at a temperature of 30° C. for 10 min, followed by ending the reaction by spotting 70 μl of the reaction mixture onto Whatman P-81 filters. To remove any unreacted [γ^32P]ATP, these spots were then soaked with 75 mM 1-1 H3PO4 for 5 min and washed three times with 75 mM 1-1 H3PO4. Before quantifying enzyme activity, filters were rinsed with 100% ethanol and air dried. To calculate PKG enzyme activity, counts were taken in a Wallac 1409 Liquid Scintillation Counter using universal scintillation cocktail (ICN). PKG activity was presented in the figures as pmol of ^32P incorporated into the substrate min-1 mg-1 protein.

NT-3 = settings: cited from earlier work
protein phosphatase = settings: cited from earlier work
[2] = molecular target: T1, phosphodiesterase-5 (PDE-5) (Mus musculus, UniProt Q8CG03); settings: mice; 1.4-mg/kg intraperitoneal injections daily for 8 days; cited from earlier work
T1 construct: Sildenafil (Viagra) was administered to mice, 1.4-mg/kg intraperitoneal injections daily for 8 days; host or cells: mice in vivo (brain neurons under hypoxia)

SMILES	anoxic coma onset sensitivity (time to failure) vs sham control [1]	PKG enzyme activity levels in heads compared to sham control (PKG)	neurotrophin (NT-3) activity (NT-3)	nerve cell death (protein phosphatase)	neuron apoptosis during hypoxia [2]
Nc1nc2c(nc(Br)n2[C@@H]2O[C@@H]3COP(=O)(O)O[C@H]3[C@H]2O)c(=O)[nH]1 [8-Bromo cGMP, 8-Bromo-cGMP]	significant sensitivity to anoxic coma	significant effects compared to that of the sham control			
C[C@@]12C(=O)OC(=O)[C@]1(C)[C@H]1CC[C@@H]2O1 [Cantharidin]	significant resilience to anoxic coma	no significant effects on PKG enzyme activity levels			
COC(=O)[C@@]1(OC)C[C@H]2O[C@]1(C)n1c3ccccc3c3c4c(c5c6ccccc6n2c5c31)C(=O)N(C)C4 [KT5823]	significant resilience to anoxic coma	significant effects compared to that of the sham control	potentiation of NT-3		
C=C1[C@@H](O)[C@@H]2O[C@]3(CC[C@H](/C=C/[C@@H](C)[C@@H]4CC(C)=C[C@@]5(O[C@H](C[C@@](C)(O)C(=O)O)CC[C@H]5O)O4)O3)CC[C@H]2O[C@@H]1[C@@H](O)C[C@H](C)[C@H]1O[C@@]2(CCCCO2)CC[C@H]1C [Okadaic acid]				increase nerve cell death	
CCCc1nn(C)c2c(=O)[nH]c(-c3cc(S(=O)(=O)N4CCN(C)CC4)ccc3OCC)nc12 [Sildenafil, sildenafil]					reduces neuron apoptosis
COC(=O)c1c(-c2cc(OC)c(OC)c(OC)c2)c2ccnc(OCc3ncccn3)c2c(=O)n1Cc1ccnc(C)c1 [T-0156]	significant sensitivity to anoxic coma	significant effects compared to that of the sham control			
